Experimental data from PMC3169519 (PLoS Computational Biology, 2011).
Read-outs that look alike come from different tables or passages of the source.

Assays:
[1] = molecular target: T1, TOP1 (Homo sapiens, UniProt P11387); assay: DNA-bound TOP1 (Topo I Link Kit) after CPT11 exposure of synchronized cells; format: cell-based; conditions: synchronized Caco-2 cells
T1 construct: endogenous in cells; host or cells: Caco-2 (ATCC)
T1 sequence (P11387 1-765): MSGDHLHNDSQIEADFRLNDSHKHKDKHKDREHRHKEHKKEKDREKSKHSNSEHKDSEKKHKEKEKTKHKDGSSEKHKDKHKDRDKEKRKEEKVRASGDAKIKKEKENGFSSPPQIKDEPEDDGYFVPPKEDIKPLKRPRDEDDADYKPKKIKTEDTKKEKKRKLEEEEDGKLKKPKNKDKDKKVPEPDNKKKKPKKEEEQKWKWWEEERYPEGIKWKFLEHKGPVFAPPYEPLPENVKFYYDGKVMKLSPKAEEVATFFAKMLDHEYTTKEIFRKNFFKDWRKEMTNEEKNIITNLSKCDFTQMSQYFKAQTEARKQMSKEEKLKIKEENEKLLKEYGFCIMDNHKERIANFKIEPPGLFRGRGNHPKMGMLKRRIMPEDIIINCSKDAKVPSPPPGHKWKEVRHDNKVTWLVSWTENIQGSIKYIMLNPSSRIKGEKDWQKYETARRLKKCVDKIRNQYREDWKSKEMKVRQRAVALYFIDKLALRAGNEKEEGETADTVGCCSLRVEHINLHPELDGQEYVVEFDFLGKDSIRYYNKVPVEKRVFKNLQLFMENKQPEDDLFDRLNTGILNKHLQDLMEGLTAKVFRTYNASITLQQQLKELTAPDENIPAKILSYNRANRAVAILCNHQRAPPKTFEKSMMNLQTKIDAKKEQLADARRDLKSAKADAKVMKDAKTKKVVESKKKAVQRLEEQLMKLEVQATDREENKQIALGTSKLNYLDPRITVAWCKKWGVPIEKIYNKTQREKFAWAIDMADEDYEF
Description: The Caco-2 cell line was obtained from the American Type Culture Collection (Rockville, MD). Cells were grown in Dulbecco's modified Eagle's: Ham F12 medium (1∶1) supplemented with penicillin ([…]), streptomycin ( [drawing 195] ), glutamine (2 mM) (Fischer Scientific, Paris, France) and 10% of Fetal Bovine Serum (FBS) (Dutscher, Paris, France). They were maintained in a humidified atmosphere containing 5% [drawing 196] at [drawing 197] . Experiments were performed four days after confluence. CPT11 was purchased from Pfizer (Paris, France). For transport inhibition studies, non-synchronized cells were pre-incubated with verapamil, a non specific inhibitor of ABC transporters ( [drawing 198] for 24 h; Sigma Aldrich, Paris, France). […] Cell synchronization was performed by a serum shock which consisted in a 2-hour exposure to serum rich medium (DMEM:F12 containing 50% FBS). The beginning of the serum shock defined Circadian Time 0 (CT 0).
The Topo I Link Kit (TopoGen, Port Orange, FL) was used to quantify the amount of TOP1 linked on DNA [56]. […] Fractions of [drawing 208] were removed from the top of the gradient, and an aliquot of each fraction ( [drawing 209] ) was diluted (1/5) and quantified at 260 nm with spectrophotometer (Eppendorf, Paris, France). […] Chemoluminescence signals were detected with Las4000 camera and quantified with ImageJ software. […]

[2] = tested on: CESs; conditions: cited from earlier work
[3] = cancer patients, dumbbell delivery scheme over 6h; cited from earlier work

DNA-bound TOP1 protein amount, % of TOP1 total protein quantity ([1]; 30 min CPT11 exposure at CT14): 47% | DNA-bound TOP1 protein amount, % of TOP1 total protein quantity ([1]; 30 min CPT11 exposure at CT28): 35.5%
SMILES: CCc1c2c(nc3ccc(OC(=O)N4CCC(N5CCCCC5)CC4)cc13)-c1cc3c(c(=O)n1C2)COC(=O)[C@]3(O)CC [CPT11, irinotecan]
Kces ([2]; [CES]=1.42 µM): 53 µM | Kces ([2]; [CES]=2.03 µM): 53 µM | Vces ([2]; [CES]=2.03 µM): 0.714 µM/h | time CPT11 circulating [3]: approximately 12 h
